Test results taken from PubChem BioAssay (NCI).
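Assay format: 96-well plates, 48-hour exposure. TGI denotes the concentration required for complete inhibition of growth.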

Tests used:
Test in all cases: NCI-60 cell line screen, 48 h
HOP-92 NSCLC = test system: HOP-92 NSCLC
IGROV1 ovarian = test system: IGROV1 ovarian
DU-145 prostate = test system: DU-145 prostate
MALME-3M melanoma = test system: MALME-3M melanoma
UO-31 renal = test system: UO-31 renal
BT-549 breast = test system: BT-549 breast
SF-268 CNS = test system: SF-268 CNS
RXF 393 renal = test system: RXF 393 renal
K-562 leukemia = test system: K-562 leukemia
KM12 colon = test system: KM12 colon
MCF7 breast = test system: MCF7 breast
PC-3 prostate = test system: PC-3 prostate
SF-295 CNS = test system: SF-295 CNS
RPMI-8226 leukemia = test system: RPMI-8226 leukemia
NCI-H460 lung = test system: NCI-H460 lung
NCI-H522 lung = test system: NCI-H522 lung
SK-MEL-5 melanoma = test system: SK-MEL-5 melanoma
COLO 205 colon = test system: COLO 205 colon
M14 melanoma = test system: M14 melanoma
SNB-75 CNS = test system: SNB-75 CNS
MOLT-4 leukemia = test system: MOLT-4 leukemia
HCT-116 colon = test system: HCT-116 colon
A549 NSCLC = test system: A549 NSCLC
MDA-MB-231 breast = test system: MDA-MB-231 breast
T-47D breast = test system: T-47D breast
CAKI-1 renal = test system: CAKI-1 renal
MDA-N = test system: MDA-N
SF-539 CNS = test system: SF-539 CNS
SW-620 colon = test system: SW-620 colon
MDA-MB-435 = test system: MDA-MB-435
TK-10 renal = test system: TK-10 renal
NCI/ADR-RES ovarian = test system: NCI/ADR-RES ovarian
LOX IMVI melanoma = test system: LOX IMVI melanoma
OVCAR-3 ovarian = test system: OVCAR-3 ovarian
SN12C renal = test system: SN12C renal
UACC-257 melanoma = test system: UACC-257 melanoma
OVCAR-5 ovarian = test system: OVCAR-5 ovarian
ACHN renal = test system: ACHN renal
HCT-15 colon = test system: HCT-15 colon
SK-MEL-28 melanoma = test system: SK-MEL-28 melanoma
OVCAR-4 ovarian = test system: OVCAR-4 ovarian
UACC-62 melanoma = test system: UACC-62 melanoma
786-0 renal = test system: 786-0 renal
U251 CNS = test system: U251 CNS
NCI-H23 lung = test system: NCI-H23 lung
HT29 colon = test system: HT29 colon
SR leukemia = test system: SR leukemia
A498 renal = test system: A498 renal
HOP-62 NSCLC = test system: HOP-62 NSCLC
HS 578T breast = test system: HS 578T breast
SK-OV-3 ovarian = test system: SK-OV-3 ovarian
SNB-19 CNS = test system: SNB-19 CNS
CCRF-CEM leukemia = test system: CCRF-CEM leukemia
SK-MEL-2 melanoma = test system: SK-MEL-2 melanoma
EKVX NSCLC = test system: EKVX NSCLC
OVCAR-8 ovarian = test system: OVCAR-8 ovarian
HL-60(TB) leukemia = test system: HL-60(TB) leukemia
HCC-2998 colon = test system: HCC-2998 colon
NCI-H226 lung = test system: NCI-H226 lung

Cc1cc(=Nc2ccc3c(c2)c(N)cc(C)[n+]3C)nc(N)n1C
TGI (HOP-92 NSCLC): > 100 µM | TGI (IGROV1 ovarian): > 100 µM | TGI (DU-145 prostate): > 100 µM | TGI (MALME-3M melanoma): > 100 µM | TGI (UO-31 renal): > 100 µM | TGI (BT-549 breast): > 100 µM | TGI (SF-268 CNS): > 100 µM | TGI (RXF 393 renal): > 100 µM | TGI (K-562 leukemia): > 100 µM | TGI (KM12 colon): > 100 µM | TGI (MCF7 breast): > 100 µM | TGI (PC-3 prostate): > 100 µM | TGI (SF-295 CNS): > 100 µM | TGI (RPMI-8226 leukemia): > 100 µM | TGI (NCI-H460 lung): > 100 µM | TGI (NCI-H522 lung): > 100 µM | TGI (SK-MEL-5 melanoma): > 100 µM | TGI (COLO 205 colon): > 100 µM | TGI (M14 melanoma): > 100 µM | TGI (SNB-75 CNS): > 100 µM | TGI (MOLT-4 leukemia): > 100 µM | TGI (HCT-116 colon): > 100 µM | TGI (A549 NSCLC): > 100 µM | TGI (MDA-MB-231 breast): > 100 µM | TGI (T-47D breast): > 100 µM | TGI (CAKI-1 renal): > 100 µM | TGI (MDA-N): > 100 µM | TGI (SF-539 CNS): > 100 µM | TGI (SW-620 colon): > 100 µM | TGI (MDA-MB-435): > 100 µM | TGI (TK-10 renal): > 100 µM | TGI (NCI/ADR-RES ovarian): > 100 µM | TGI (LOX IMVI melanoma): > 100 µM | TGI (OVCAR-3 ovarian): > 100 µM | TGI (SN12C renal): > 100 µM | TGI (UACC-257 melanoma): > 100 µM | TGI (OVCAR-5 ovarian): > 100 µM | TGI (ACHN renal): > 100 µM | TGI (HCT-15 colon): > 100 µM | TGI (SK-MEL-28 melanoma): > 100 µM | TGI (OVCAR-4 ovarian): > 100 µM | TGI (UACC-62 melanoma): > 100 µM | TGI (786-0 renal): > 100 µM | TGI (U251 CNS): > 100 µM | TGI (NCI-H23 lung): > 100 µM | TGI (HT29 colon): > 100 µM | TGI (SR leukemia): > 100 µM | TGI (A498 renal): > 100 µM | TGI (HOP-62 NSCLC): > 100 µM | TGI (HS 578T breast): > 100 µM | TGI (SK-OV-3 ovarian): > 100 µM | TGI (SNB-19 CNS): > 100 µM | TGI (CCRF-CEM leukemia): > 100 µM | TGI (SK-MEL-2 melanoma): > 100 µM | TGI (EKVX NSCLC): > 100 µM | TGI (OVCAR-8 ovarian): > 100 µM

COC(=O)CCCCC/C(=C\C(=O)C(Cl)(Cl)Cl)OC
TGI (HOP-92 NSCLC): 57.1 µM | TGI (IGROV1 ovarian): 32.2 µM | TGI (DU-145 prostate): 63.1 µM | TGI (MALME-3M melanoma): 65.2 µM | TGI (UO-31 renal): > 100 µM | TGI (BT-549 breast): > 100 µM | TGI (SF-268 CNS): 86.3 µM | TGI (RXF 393 renal): 41.1 µM | TGI (K-562 leukemia): > 100 µM | TGI (KM12 colon): 95 µM | TGI (MCF7 breast): 58.5 µM | TGI (PC-3 prostate): 77.9 µM | TGI (SF-295 CNS): > 100 µM | TGI (RPMI-8226 leukemia): 60.9 µM | TGI (NCI-H460 lung): 76.9 µM | TGI (NCI-H522 lung): 41.1 µM | TGI (SK-MEL-5 melanoma): > 100 µM | TGI (COLO 205 colon): 57.7 µM | TGI (M14 melanoma): > 100 µM | TGI (SNB-75 CNS): 72.7 µM | TGI (MOLT-4 leukemia): 60.1 µM | TGI (HCT-116 colon): 49.6 µM | TGI (A549 NSCLC): > 100 µM | TGI (MDA-MB-231 breast): > 100 µM | TGI (T-47D breast): > 100 µM | TGI (CAKI-1 renal): > 100 µM | TGI (MDA-N): 71.3 µM | TGI (SF-539 CNS): 44.4 µM | TGI (SW-620 colon): 84.3 µM | TGI (MDA-MB-435): 64.7 µM | TGI (TK-10 renal): 86.9 µM | TGI (HL-60(TB) leukemia): 47.6 µM | TGI (NCI/ADR-RES ovarian): > 100 µM | TGI (LOX IMVI melanoma): 44.9 µM | TGI (OVCAR-3 ovarian): 70.4 µM | TGI (SN12C renal): > 100 µM | TGI (UACC-257 melanoma): 57.7 µM | TGI (OVCAR-5 ovarian): > 100 µM | TGI (ACHN renal): > 100 µM | TGI (HCT-15 colon): 68.2 µM | TGI (SK-MEL-28 melanoma): > 100 µM | TGI (OVCAR-4 ovarian): 42.1 µM | TGI (UACC-62 melanoma): > 100 µM | TGI (786-0 renal): 68.5 µM | TGI (U251 CNS): 90 µM | TGI (NCI-H23 lung): > 100 µM | TGI (HT29 colon): 72.6 µM | TGI (SR leukemia): 45.2 µM | TGI (A498 renal): > 100 µM | TGI (HOP-62 NSCLC): > 100 µM | TGI (HS 578T breast): 97.1 µM | TGI (SK-OV-3 ovarian): > 100 µM | TGI (SNB-19 CNS): > 100 µM | TGI (CCRF-CEM leukemia): > 100 µM | TGI (HCC-2998 colon): 35.6 µM | TGI (SK-MEL-2 melanoma): 50 µM | TGI (EKVX NSCLC): 56.8 µM | TGI (OVCAR-8 ovarian): 73.6 µM

CC1=C(C(=O)OC(C)C)C(c2ccccc2[N+](=O)[O-])C(C(=O)OC(CO[N+](=O)[O-])CO[N+](=O)[O-])=C(C)N1 (centres undefined)
TGI (IGROV1 ovarian): 27.9 µM | TGI (DU-145 prostate): > 100 µM | TGI (MALME-3M melanoma): 23.6 µM | TGI (UO-31 renal): 16.2 µM | TGI (BT-549 breast): 26 µM | TGI (SF-268 CNS): 16.8 µM | TGI (RXF 393 renal): 15.5 µM | TGI (K-562 leukemia): 71.6 µM | TGI (KM12 colon): 22.8 µM | TGI (MCF7 breast): 27.9 µM | TGI (PC-3 prostate): 12.2 µM | TGI (SF-295 CNS): 6.95 µM | TGI (RPMI-8226 leukemia): > 100 µM | TGI (NCI-H460 lung): 16 µM | TGI (NCI-H522 lung): 8.45 µM | TGI (SK-MEL-5 melanoma): 4.78 µM | TGI (COLO 205 colon): 38.8 µM | TGI (M14 melanoma): 14.3 µM | TGI (SNB-75 CNS): 8.19 µM | TGI (MOLT-4 leukemia): 5.9 µM | TGI (HCT-116 colon): 11.4 µM | TGI (A549 NSCLC): 12.9 µM | TGI (MDA-MB-231 breast): 35.4 µM | TGI (T-47D breast): > 100 µM | TGI (CAKI-1 renal): 19.3 µM | TGI (MDA-N): 8.43 µM | TGI (SW-620 colon): 18.9 µM | TGI (MDA-MB-435): 13.2 µM | TGI (TK-10 renal): > 100 µM | TGI (HL-60(TB) leukemia): > 100 µM | TGI (NCI/ADR-RES ovarian): 12.2 µM | TGI (LOX IMVI melanoma): 11.3 µM | TGI (OVCAR-3 ovarian): 76.7 µM | TGI (SN12C renal): 52.6 µM | TGI (UACC-257 melanoma): 15.7 µM | TGI (OVCAR-5 ovarian): > 100 µM | TGI (ACHN renal): 23.7 µM | TGI (HCT-15 colon): 16.2 µM | TGI (SK-MEL-28 melanoma): 17.9 µM | TGI (OVCAR-4 ovarian): 22.4 µM | TGI (UACC-62 melanoma): 8.14 µM | TGI (786-0 renal): 14.4 µM | TGI (U251 CNS): 13.4 µM | TGI (NCI-H226 lung): 28.5 µM | TGI (NCI-H23 lung): 39.2 µM | TGI (HT29 colon): 7.98 µM | TGI (SR leukemia): > 100 µM | TGI (HOP-62 NSCLC): 11.2 µM | TGI (HS 578T breast): 25.8 µM | TGI (SK-OV-3 ovarian): 12.6 µM | TGI (SNB-19 CNS): 23.8 µM | TGI (HCC-2998 colon): 43 µM | TGI (SK-MEL-2 melanoma): 9.64 µM | TGI (EKVX NSCLC): 18.8 µM | TGI (OVCAR-8 ovarian): 22 µM
